Data from patent EP0672658B1, “Antithrombotic agents” (priority 1994, dated 1995).
Counter-ions that a name gives are not always drawn.

What was measured:
[1] = Arterio-Venous shunt model; assay type: in vivo, rats; conditions: continuous intravenous infusion; for thrombus weight: both compounds to the same extent
Protocol: […]. Blood circulated through the shunt for 15 minutes before the thread is carefully removed and weighed. The weight of a wet thread is subtracted from the total weight of the thread and thrombus (see J.R. Smith, Br. J. Pharmacol., 77,29 (1982)).

[2] = Coagulation parameters in plasma of treated rats (TT, APTT, prothrombin time); assay type: in vivo, rat; conditions: for plasma thrombin time prolonged: during infusion reducing thrombus weight to approximately 20% of control in the Arterio-Venous shunt model
t-PA = t-PA (Homo sapiens, UniProt P00750); assay: biochemical; conditions: read-out: Kass t-PA (converted)
How it was run: (§1)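 Amidase activity of human plasmin and t-PA (nt-PA single-chain; mt-PA6) was measured by a chromogenic method adapted from a thrombin assay. Substrates were H-D-Val-Leu-Lys-p-nitroanilide for plasmin and H-D-Ile-Pro-Arg-p-nitroanilide for t-PA.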

Plasmin = molecular target: T1, Plasmin (Homo sapiens, UniProt P00747); assay: biochemical; conditions: read-out: Kass Plasmin (converted)
T1 construct: Human plasmin is purchased; purchased Boehringer Mannheim, Indianapolis, Indiana
How it was run: as §1

Human Thrombin = Human Thrombin (Homo sapiens, UniProt P00734); assay: biochemical; conditions: read-out: Kass Human Thrombin (converted)
Trypsin = molecular target: T2, Trypsin (Bos taurus, UniProt P00760); assay: biochemical; design: species or system Bovine; conditions: read-out: Kass Trypsin (converted)
T2 sequence (P00760 24-246): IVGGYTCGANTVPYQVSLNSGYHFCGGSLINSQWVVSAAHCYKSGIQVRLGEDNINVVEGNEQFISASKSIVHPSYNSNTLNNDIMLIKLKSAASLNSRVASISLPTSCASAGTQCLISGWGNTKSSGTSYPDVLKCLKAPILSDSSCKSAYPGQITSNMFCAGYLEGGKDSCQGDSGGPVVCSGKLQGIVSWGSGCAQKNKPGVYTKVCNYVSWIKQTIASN
How it was run: (§2)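 Bovine trypsin and human factor Xa amidase activity measured chromogenically, following the human thrombin procedure. Substrates: N-Benzoyl-Ile-Glu-Gly-Arg-p-nitroanilide for factor Xa and N-Benzoyl-Phe-Val-Arg-p-nitroanilide for trypsin. Used for selectivity profiling.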

human or animal plasma [3] = assay: Anticoagulation determination in plasma: activated partial thromboplastin time (APTT); assay type: biochemical; conditions: concentration doubling activated partial thromboplastin time
How it was run: (§3)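 Compounds spiked over a concentration range into citrated human, dog or rat plasma. PT used Thromboplastin-C; APTT used Actin reagent 120 s then 0.02 M CaCl2; TT used bovine thrombin 10 NIH units/mL. Concentration doubling clotting time estimated by linear extrapolation.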

human or animal plasma [4] = assay: Anticoagulation determination in plasma: prothrombin time (PT); assay type: biochemical; conditions: concentration doubling prothrombin time
How it was run: as §3

human or animal plasma [5] = assay: Anticoagulation determination in plasma: thrombin time (TT); assay type: biochemical; conditions: concentration doubling thrombin time
How it was run: as §3

factor Xa = factor Xa (Homo sapiens, UniProt P00742); assay: biochemical; conditions: read-out: Kass Xa (converted)
How it was run: as §2

[6] = during infusion in the Arterio-Venous shunt model

Sequence of factor Xa (P00742 235-488 limits assumed): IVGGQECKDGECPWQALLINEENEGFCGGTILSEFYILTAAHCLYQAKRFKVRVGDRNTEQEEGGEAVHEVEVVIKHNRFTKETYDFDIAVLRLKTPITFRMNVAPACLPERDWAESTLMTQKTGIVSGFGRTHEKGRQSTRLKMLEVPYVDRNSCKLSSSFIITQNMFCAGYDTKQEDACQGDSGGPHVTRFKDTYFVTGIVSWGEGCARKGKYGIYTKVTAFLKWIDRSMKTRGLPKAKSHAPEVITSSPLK
Sequence of factor Xa (P00742 41-179 partner limits assumed): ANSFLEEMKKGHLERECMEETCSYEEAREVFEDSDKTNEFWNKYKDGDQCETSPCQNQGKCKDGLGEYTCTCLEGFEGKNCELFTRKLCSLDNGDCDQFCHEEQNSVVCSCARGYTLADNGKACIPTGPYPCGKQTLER
T1 sequence (P00747 581-810 limits assumed): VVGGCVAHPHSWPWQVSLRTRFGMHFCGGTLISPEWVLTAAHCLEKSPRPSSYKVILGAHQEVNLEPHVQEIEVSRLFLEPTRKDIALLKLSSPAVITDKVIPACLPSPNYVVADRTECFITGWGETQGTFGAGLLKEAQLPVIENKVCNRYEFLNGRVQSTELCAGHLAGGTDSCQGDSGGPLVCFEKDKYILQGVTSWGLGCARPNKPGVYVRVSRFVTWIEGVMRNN
T1 sequence (P00747 97-580 partner limits assumed): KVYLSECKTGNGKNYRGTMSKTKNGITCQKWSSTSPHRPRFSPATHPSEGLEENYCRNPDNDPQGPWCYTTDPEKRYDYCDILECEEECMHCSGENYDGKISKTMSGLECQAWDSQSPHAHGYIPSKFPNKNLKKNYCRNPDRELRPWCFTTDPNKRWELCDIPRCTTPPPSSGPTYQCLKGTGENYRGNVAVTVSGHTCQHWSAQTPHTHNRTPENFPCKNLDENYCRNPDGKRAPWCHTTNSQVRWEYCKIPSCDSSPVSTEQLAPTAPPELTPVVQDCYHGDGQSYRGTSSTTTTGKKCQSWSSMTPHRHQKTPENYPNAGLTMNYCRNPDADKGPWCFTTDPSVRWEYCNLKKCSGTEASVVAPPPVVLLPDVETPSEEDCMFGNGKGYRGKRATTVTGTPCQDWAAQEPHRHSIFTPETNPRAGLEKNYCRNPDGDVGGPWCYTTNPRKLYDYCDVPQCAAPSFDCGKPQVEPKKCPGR
Sequence of t-PA (P00750 36-562): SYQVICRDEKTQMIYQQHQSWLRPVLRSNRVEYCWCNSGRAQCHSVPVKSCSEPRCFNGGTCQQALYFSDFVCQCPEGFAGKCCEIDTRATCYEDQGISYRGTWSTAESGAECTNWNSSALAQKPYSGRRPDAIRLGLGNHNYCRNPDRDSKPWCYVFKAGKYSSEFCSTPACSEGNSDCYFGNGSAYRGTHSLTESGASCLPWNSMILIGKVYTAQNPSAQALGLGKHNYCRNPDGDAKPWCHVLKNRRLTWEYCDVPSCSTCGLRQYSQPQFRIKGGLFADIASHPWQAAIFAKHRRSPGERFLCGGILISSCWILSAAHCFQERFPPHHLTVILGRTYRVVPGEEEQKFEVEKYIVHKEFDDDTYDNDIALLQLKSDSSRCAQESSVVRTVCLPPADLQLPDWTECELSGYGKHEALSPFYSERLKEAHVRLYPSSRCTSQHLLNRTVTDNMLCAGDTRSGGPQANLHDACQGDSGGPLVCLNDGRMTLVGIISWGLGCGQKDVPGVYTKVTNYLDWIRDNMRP

Row | Kd (t-PA) | Kd (Plasmin) | Kd (Human Thrombin) | Kd (Trypsin) | Kd (factor Xa) | SMILES | thrombus weight [1] | plasma thrombin time prolonged [2] | antithrombotic potency compared with D-MePhe-Pro-Arg-H ([1]; greater than D-MePhe-Pro-Arg-H) | APTT extended [2, 6] | Prothrombin time extended [2, 6] | Human Plasma Anticoagulation 2x Clotting time (ng/mL) APTT (human or animal plasma [3]) | Human Plasma Anticoagulation 2x Clotting time (ng/mL) PT (human or animal plasma [4]) | Human Plasma Anticoagulation 2x Clotting time (ng/mL) TT (human or animal plasma [5])
1 | – | – | – | – | – | CN[C@H](Cc1ccccc1)C(=O)N1CCC[C@H]1C(=O)N[C@H](C=O)CCCNC(=N)N [D-MePhe-Pro-Arg-H, reference compound] | approximately 20 % of control | greater than 20 fold | – | – | – | – | – | –
2 | 20000 nM | 2330 nM | 0.244 nM | 4 nM | 182 nM | N=C(N)c1ccc(CNC(=O)[C@@H]2CCCN2C(=O)[C@@H](CC2CCCCC2)NCC(=O)O)cc1 [Example 48, HOOCCH2-D-Cha-Pro-p-NHCH2C6H4C(NH)NH2·HCl] | approximately 20 % of control | about 3 fold | 9 fold | about 120 % of control | about 120 % of control | 33 ng/mL | 59 ng/mL | 2. ng/mL
